Results published in patent publication US20090324691A1, “METHODS AND OPHTHALMIC DEVICES USED IN THE TREATMENT OF OCULAR ALLERGIES” (priority 2008, published 2009).
Structures can show the parent of a compound that is named as a salt.

Tests used:
[1] = concentrations higher than 0.025% (0.25 mg/mL), topical solution; cited from earlier work
[2] = Uptake of ketotifen fumarate to an ophthalmic device over time (FIG. 1); format: physicochemical; details: 3.0 mL of 43 ug/mL ketotifen fumarate packing solution per lens
Method: FIG. 1 illustrates the uptake of ketotifen fumarate to an ophthalmic device over time.
Three lots of 1-Day Acuvue® Brand Contact Lenses (etafilcon A) were cured and hydrated with deionized water. These lenses were inserted into glass vials containing 3.0 mL of a 43 ug/mL ketotifen fumarate packing solution per lens (packing solution formulation: borate buffered saline containing 0.83% sodium chloride, 0.9% boric acid, 100 ug/mL of dicalcium DTPA, and 0.1% sodium borate decahydrate ). The soaked and harvested at 5, 15, 30, 90 and 180 minutes and extracted and assayed as in Example 1 to determine the amount of ketotifen per treated lens. This graph illustrates that a minimum effective amount of in an etafilcon A contact lens is attained within 15 minutes of treatment.

CN1CCC(=C2c3ccccc3CC(=O)c3sccc32)CC1 [ketotifen fumarate]
ocular tolerability of higher concentrations [1]: sting and burn upon initial administration to the eye
time of treatment to attain a minimum effective amount in an etafilcon A contact lens [2]: ≤ 15 min
